One series concerns Komatsuna. Briefly: Growth promotion effect test IV of water-solubilized coenzyme Q10. The class given is in vivo. Conditions: growth-promoting agent in Example 3 (CoQ10 1 ppm), after 7 days. On the procedure: (§1) A required number of petri dishes were prepared, the Kimtowel was matted on the each petri dish, 100 mL of the growth-promoting agent in Example 3 was poured thereon, and 40 seeds (produced by Noguchi Seed and Seedling Laboratory) of the plants described in Table 4 were placed thereon. These petri dishes were stored at room temperature under the light shielding condition. After 7 days, sprouts were collected, and the total length of the plants described in Table 4 was measured. The growth rate was calculated based on the following formula (A growth rate was calculated by the same way described above): [(A−B)/B]×100, wherein A denotes a measured value of the total length of the plant cultivated in the presence of the growth-promoting agent containing CoQ10, and B denotes the measured value of the total length of the plant as the control.

The next series deals with Burdock. Described as above. Format: in vivo. Conditions: growth-promoting agent in Example 3 (CoQ10 1 ppm), after 7 days. As for the experimental part: as §1
Another series relates to Crown daisy. Described as above. Format: in vivo. Conditions: growth-promoting agent in Example 3 (CoQ10 1 ppm), after 7 days. On the procedure: as §1
A further series has as its system Spinach. The description is as above. Format: in vivo. Particulars: growth-promoting agent in Example 3 (CoQ10 1 ppm), after 7 days. As for the experimental part: as §1
The subject of the next series is radish sprouts. Briefly: Growth promotion effect test I of water-solubilized coenzyme Q10. Conditions: high concentration of 100 ppm of coenzyme Q10. The class given is in vivo. As for the experimental part:
A Kimtowel was matted on a petri dish, 100 mL of a growth-promoting agent in Example 1 was poured thereon, and 20 seeds of radish sprouts (produced by Noguchi Seed and Seedling Laboratory) were placed thereon. This petri dish was stored at room temperature under a light shielding condition. After 7 days, the sprouts were collected, and a total length and a root length of the radish sprouts were measured. Data as the control was a result obtained by measuring the total length of the plant in the same way as described above, except that city water was used in place of the growth-promoting agent (data as the control described below was a result obtained by the same way described above). Numerical values in the Table represent a mean of measured values unless otherwise explained (Numerical values in the Table described below represent the same described above). A growth rate was calculated based on the following formula (Numerical A growth rate was calculated by the same way described above): [(A−B)/B]×100, wherein A denotes a measured value of the total length of the plant cultivated in the presence of the growth-promoting agent containing coenzyme Q10, and B denotes a measured value of the total length of the plant as the control plant.

The next series concerns Chives. Briefly: Growth promotion effect test V of water-solubilized coenzyme Q10. The class given is in vivo. Particulars: same way as test IV (CoQ10 1 ppm). As for the experimental part:
(§2) A required number of petri dishes were prepared, the Kimtowel was matted on the each petri dish, 100 mL of the growth-promoting agent in Example 3 was poured thereon, and 40 seeds (produced by Noguchi Seed and Seedling Laboratory) of the plants described in Table 4 were placed thereon. These petri dishes were stored at room temperature under the light shielding condition. After 7 days, sprouts were collected, and the total length of the plants described in Table 4 was measured. The required number of petri dishes was prepared, and the growth-promoting effect on seeds (produced by Noguchi Seed and Seedling Laboratory) of the plants described in Table 5 was examined in the same way as in Growth promotion effect test IV of water-solubilized coenzyme Q10. 30 seeds of wheat were examined. Buckwheat and snow peas were stored at room temperature under the light shielding condition, and collected after 8 days. Spinach was stored at room temperature under the light shielding condition, and collected after 9 days.

Another series relates to Wheat. The series is described as above. The class given is in vivo. Conditions: 30 seeds, same way as test IV (CoQ10 1 ppm). As for the experimental part: as §2
For another series, the system named is Snow peas. Described as above. The class given is in vivo. Conditions: same way as test IV (CoQ10 1 ppm). As for the experimental part: as §2
A further series deals with Buckwheat. Described as above. Format: in vivo. Conditions: same way as test IV (CoQ10 1 ppm). As for the experimental part: as §2
A further series concerns Green onions. The description is as above. Format: in vivo. Conditions: same way as test IV (CoQ10 1 ppm). On the procedure: as §2
Series [1] is described as follows: Precipitation of coenzyme Q10 in the growth-promoting agent. Format: physicochemical. Particulars: growth-promoting agent diluted with city water, up to 100 ppm. As for the experimental part:
First, 1.25 g of water-solubilized coenzyme Q10 (Aqua Q10-P40 containing coenzyme Q10 in an amount of 40% by mass manufactured by Nisshin Pharma Inc.) was diluted using 500 ml of city water to prepare a solution of 1000 ppm of coenzyme Q10. This was diluted with city water to prepare a growth-promoting agent in a solubilized form containing coenzyme Q10 (sometimes described as CoQ10) in the amount of 10 ppm or 100 ppm.

Setting [2] is: room temperature, light shielding.
Setting [3] is: room temperature, light shielding, collected after 8 days.

For `COC1=C(OC)C(=O)C(C/C=C(\C)CC/C=C(\C)CC/C=C(\C)CC/C=C(\C)CC/C=C(\C)CC/C=C(\C)CC/C=C(\C)CC/C=C(\C)CC/C=C(\C)CCC=C(C)C)=C(C)C1=O` [CoQ10, coenzyme Q10], the Growth increase rate stood at 15.6% with Komatsuna (versus control); 12.7% in the series on Burdock (versus control); 17.9% in the series on Crown daisy (versus control); 10.5% in the series with Spinach (versus control); 22.4% in the series on Chives (versus control); 44.6% with Wheat (versus control). Besides, the Growth increase rate in the series on Snow peas (after 8 days, versus control) came to 17.1%; in the series with Buckwheat (after 8 days, versus control), 12.8%; with Green onions (versus control), 19.4%. Besides, the “Measured value (total length)” value was found to be 8.87 cm with Komatsuna (setting [2]); 4.96 cm with Burdock (setting [2]); 5.46 cm in the series with Crown daisy (setting [2]); 4.22 cm with Spinach (setting [2]); 2.90 cm with Chives (setting [2]); 14.16 cm in the series with Wheat (setting [2]). Besides, the results for the “Measured value (total length)” value in the series with Snow peas (setting [3]), in the series with Buckwheat (setting [3]) and with Green onions (setting [2]) were 29.31 cm, 25.01 cm and 3.02 cm, respectively. For the same compound, the concentration disorder result in the series on radish sprouts is on record as “without causing a concentration disorder”. The “precipitation of coenzyme Q10” value in series [1] was “not precipitated”.

Values taken from patent US20100179061A1, “PLANT GROWTH PROMOTER” (Nisshin Pharma Inc., priority 2007, published 2010).
